Assay results from publication PMC10797628.
Where two headings read alike, the source gives them in different places.

Assays:
human 5-HT1A receptor [1] = target: T1, human 5-HT1A receptor (Homo sapiens, UniProt P08908); assay: Radioligand binding (saturation and competition), WT 5-HT1A
T1 construct: host or cells: HEK293T
T1 sequence (P08908 1-422): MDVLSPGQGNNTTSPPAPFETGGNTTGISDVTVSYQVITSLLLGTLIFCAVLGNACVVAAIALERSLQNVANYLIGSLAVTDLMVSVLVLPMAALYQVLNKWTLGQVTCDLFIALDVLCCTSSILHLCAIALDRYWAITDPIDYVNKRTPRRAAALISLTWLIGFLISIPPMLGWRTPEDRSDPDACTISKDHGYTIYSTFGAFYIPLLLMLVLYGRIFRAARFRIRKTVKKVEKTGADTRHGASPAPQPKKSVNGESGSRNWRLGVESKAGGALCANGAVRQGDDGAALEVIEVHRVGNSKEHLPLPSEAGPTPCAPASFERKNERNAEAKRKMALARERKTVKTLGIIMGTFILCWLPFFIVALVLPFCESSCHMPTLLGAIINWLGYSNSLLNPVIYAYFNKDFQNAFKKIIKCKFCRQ

human 5-HT1B receptor [2] = target: T2, human 5-HT1B receptor (Homo sapiens, UniProt P28222); assay: Radioligand binding (saturation and competition), WT 5-HT1B
T2 construct: host or cells: HEK293T
T2 sequence (P28222 whole entry): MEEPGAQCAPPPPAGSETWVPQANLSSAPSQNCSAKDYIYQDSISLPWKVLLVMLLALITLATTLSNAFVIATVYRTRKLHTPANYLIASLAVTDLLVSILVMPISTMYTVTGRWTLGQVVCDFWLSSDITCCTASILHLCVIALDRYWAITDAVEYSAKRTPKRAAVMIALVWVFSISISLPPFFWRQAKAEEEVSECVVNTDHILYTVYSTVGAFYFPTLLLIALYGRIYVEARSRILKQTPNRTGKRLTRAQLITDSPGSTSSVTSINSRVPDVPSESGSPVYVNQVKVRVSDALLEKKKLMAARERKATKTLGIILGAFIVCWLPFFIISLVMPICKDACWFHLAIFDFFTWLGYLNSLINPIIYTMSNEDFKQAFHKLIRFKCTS

human 5-HT1D receptor [3] = target: T3, human 5-HT1D receptor (Homo sapiens, UniProt P28221); assay: Radioligand binding (saturation and competition), WT 5-HT1D
T3 construct: host or cells: HEK293T
T3 sequence (P28221 whole entry): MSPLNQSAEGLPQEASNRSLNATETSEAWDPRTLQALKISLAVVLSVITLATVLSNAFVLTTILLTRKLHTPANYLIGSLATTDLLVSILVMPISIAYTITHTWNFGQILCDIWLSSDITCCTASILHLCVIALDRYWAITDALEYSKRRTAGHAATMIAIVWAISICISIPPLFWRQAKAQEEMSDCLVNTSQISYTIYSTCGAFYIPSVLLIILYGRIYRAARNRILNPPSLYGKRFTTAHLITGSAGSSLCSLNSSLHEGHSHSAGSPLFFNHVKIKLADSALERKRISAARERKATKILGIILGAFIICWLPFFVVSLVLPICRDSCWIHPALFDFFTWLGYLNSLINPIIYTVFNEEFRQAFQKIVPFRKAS

human 5-HT1F receptor = target: T4, human 5-HT1F receptor (Homo sapiens, UniProt P30939); assay: Radioligand binding (saturation and competition), WT 5-HT1F
T4 construct: host or cells: HEK293T
T4 sequence (P30939 1-366): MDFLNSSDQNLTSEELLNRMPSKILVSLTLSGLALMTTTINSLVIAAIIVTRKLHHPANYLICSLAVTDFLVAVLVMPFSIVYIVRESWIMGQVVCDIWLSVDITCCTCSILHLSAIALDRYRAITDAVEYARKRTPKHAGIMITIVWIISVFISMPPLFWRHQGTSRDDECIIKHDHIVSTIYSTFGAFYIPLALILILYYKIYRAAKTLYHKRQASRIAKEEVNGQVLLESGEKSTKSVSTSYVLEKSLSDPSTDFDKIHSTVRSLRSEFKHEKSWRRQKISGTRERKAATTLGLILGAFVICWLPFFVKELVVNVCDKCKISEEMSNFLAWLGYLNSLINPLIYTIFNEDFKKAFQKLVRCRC

human 5-HT1A receptor [4] = target: T1, human 5-HT1A receptor; assay: cAMP accumulation (LANCE Ultra TR-FRET) in HEK293T cells, WT 5-HT1A; format: cell-based; details: for EC50: cAMP accumulation, HEKt cells, mean ± SD; for Emax: HEK-293T
Procedure: (§1) Briefly, cells transfected with the desired receptor construct and compounds were incubated in the dark for 90 min at 37 °C. After incubation, cAMP detection reagents were added, and TR-FRET was used to quantify the cAMP produced.
(§2) The functional activity of compounds was determined by stimulating cells expressing the desired receptor with FSK and test compound in parallel with 12 known concentrations of cAMP. The known concentrations of cAMP were used to create a standard curve for each experiment that was used to interpolate the unknown values of cAMP in wells with test compounds. […] The EC50 and EMAX values were determined using the “dose response – log[agonist] vs response (three parameter)” nonlinear regression model in Prism and transformed to pEC50 values, reported as mean ± SD.
(§3) Summary of functional assay conditions at various 5-HT1 receptor point mutation constructs.

human 5-HT1B receptor [5] = target: T2, human 5-HT1B receptor; assay: cAMP accumulation (LANCE Ultra TR-FRET) in HEK293T cells, WT 5-HT1B; format: cell-based; details: for EC50: cAMP accumulation, HEKt cells, mean ± SD; for Emax: HEK-293T
Procedure: as §1, §2, §3

human 5-HT1D receptor [6] = target: T3, human 5-HT1D receptor; assay: cAMP accumulation (LANCE Ultra TR-FRET) in HEK293T cells, WT 5-HT1D; format: cell-based; details: for EC50: cAMP accumulation, HEKt cells, mean ± SD; for Emax: HEK-293T
Procedure: as §1, §2, §3

[7] = Affinity (pKi ± SD) 5-HT1B, WT receptor, [^3H]5-CT competition, mean ± SD
[8] = Affinity (pKi ± SD) 5-HT1D, WT receptor, [^3H]5-CT competition, mean ± SD
[9] = read-out: 5-HT1A EMAX (%), WT receptor, normalized to basal (0%) and 10 μM 5-CT (100%)
[10] = WT receptor, normalized to basal (0%) and 10 μM 5-CT (100%)
[11] = read-out: 5-HT1B EMAX (%), WT receptor, normalized to basal (0%) and 10 μM 5-CT (100%)
[12] = read-out: 5-HT1D EMAX (%), WT receptor, normalized to basal (0%) and 10 μM 5-CT (100%)
[13] = Affinity (pKi ± SD) 5-HT1A, WT receptor, [^3H]5-CT competition, mean ± SD
[14] = WT receptor, [^3H]5-HT competition, mean ± SD, read-out: Affinity (pKi ± SD) 5-HT1F (converted)
[15] = read-out: Affinity (pKi ± SD) 5-HT1D (converted)
[16] = WT receptor, read-out: 5-HT1D pEC50 (converted)
[17] = read-out: Affinity (pKi ± SD) 5-HT1A (converted)
[18] = read-out: Affinity (pKi ± SD) 5-HT1B (converted)
[19] = WT receptor, read-out: 5-HT1A pEC50 (converted)
[20] = WT receptor, read-out: 5-HT1B pEC50 (converted)

Ki (human 5-HT1D receptor [3]; [15]) | Emax (human 5-HT1A receptor [4]; read-out: 5-HT1A EMAX (%)) | Compound | Ki (human 5-HT1B receptor [2]; [7]) | Ki (human 5-HT1D receptor [3]; [8]) | Ki (human 5-HT1F receptor) | EC50 (human 5-HT1A receptor [4]; 5-HT1A pEC50, WT receptor) | Emax (human 5-HT1A receptor [4]; [9]) | EC50 (human 5-HT1B receptor [5]; 5-HT1B pEC50, WT receptor) | Emax (human 5-HT1B receptor [5]; [11]) | 5-HT1B EMAX (%) (human 5-HT1B receptor [5]; [10]) | EC50 (human 5-HT1D receptor [6]; 5-HT1D pEC50, WT receptor) | Emax (human 5-HT1D receptor [6]; [12]) | Ki (human 5-HT1A receptor [1]; [13]) | other results
– | – | CN(C)[C@H]1CCc2c(cccc2-c2ccccc2)C1 [(S)-5-PAT] | 10.2 nM | 0.661 nM | 6760 nM | 70.8 nM | > 90% | 14.5 nM | ~30% | 28 ± 3% | 0.741 nM | > 90% | – | Affinity (pKi ± SD) 5-HT1A (human 5-HT1A receptor [1]; WT receptor, [^3H]5-CT competition, mean ± SD): 8.20 ± 0.04; 5-HT1A EMAX (%) (human 5-HT1A receptor [4]; [10]): 100 ± 2%; 5-HT1D EMAX (%) (human 5-HT1D receptor [6]; [10]): 97 ± 2%; more potent at the 5-HT1D receptor compared to 5-HT1A and 5-HT1B receptors (human 5-HT1D receptor [6]; cAMP potency ratio): over 10 fold
– | – | CCCN(CCC)[C@H]1CCc2cccc(O)c2C1 [(S)-8-OH-DPAT, 8-hydroxy-N,N-dipropyl-1,2,3,4-tetrahydronaphthalen-2-amine, reference compound] | – | – | > 10000 nM | – | – | – | 85 ± 3% | – | – | 94 ± 2% | – | 5-HT1A EMAX (%) (human 5-HT1A receptor [4]; [10]): 70 ± 3%
– | – | CN(C)[C@H]1CCc2c(cccc2-c2ccccc2Cl)C1 [(S)-CPT] | 0.891 nM | 0.447 nM | > 10000 nM | 43.7 nM | 91 ± 2% | 0.347 nM | > 90% | 100 ± 1% | 2.24 nM | 101 ± 1% | 5.75 nM | –
– | – | CCCN(CCC)[C@H]1CCc2c(cccc2-c2ccccc2Cl)C1 [(S)-DCPT] | 0.398 nM | 0.562 nM | 7590 nM | 26.3 nM | 92 ± 4% | 0.288 nM | > 90% | 103 ± 2% | 2.4 nM | 101 ± 2% | 1.41 nM | –
– | – | CCCN(CCC)[C@H]1CCc2c(cccc2-c2ccccc2F)C1 [(S)-DFPT] | 2 nM | 0.155 nM | 8510 nM | 12.6 nM | 100 ± 2% | 1.23 nM | > 90% | 100 ± 2% | 1.17 nM | 99 ± 2% | 1.45 nM | –
– | – | O=C1CCc2ccc(OCCCCN3CCN(c4cccc(Cl)c4Cl)CC3)cc2N1 [Aripiprazole, aripiprazole, reference compound] | – | – | – | – | 96 ± 2% | – | 99 ± 3% | – | – | 96 ± 1% | – | Ki (human 5-HT1F receptor; [14]): 7240 nM
617 nM | 75 ± 1% | O=C1CC2(CCCC2)CC(=O)N1CCCCN1CCN(c2ncccn2)CC1 [Buspirone, buspirone, reference compound] | – | – | – | – | – | – | – | – | – | – | – | Ki (human 5-HT1F receptor; [14]): > 10000 nM; Emax (human 5-HT1B receptor [5]; read-out: 5-HT1B EMAX (%)): 45 ± 3%; Emax (human 5-HT1D receptor [6]; read-out: 5-HT1D EMAX (%)): 50 ± 3%; EC50 (human 5-HT1D receptor [6]; [16]): > 10000 nM
4.79 nM | 93 ± 4% | CN(C)[C@H]1CCc2c(cccc2-c2cccc3c2oc2ccccc23)C1 [DBZ, (S)-5-(Dibenzo[b,d]furan-4-yl)-N,N-dimethyl-1,2,3,4-tetrahydronaphthalen-2-amine] | – | – | – | – | – | – | – | – | – | – | – | Ki (human 5-HT1A receptor [1]; [17]): 309 nM; Ki (human 5-HT1B receptor [2]; [18]): 69.2 nM; EC50 (human 5-HT1A receptor [4]; [19]): 813 nM; Emax (human 5-HT1B receptor [5]; read-out: 5-HT1B EMAX (%)): 93 ± 2%; EC50 (human 5-HT1B receptor [5]; [20]): 64.6 nM; Emax (human 5-HT1D receptor [6]; read-out: 5-HT1D EMAX (%)): 99 ± 2%; EC50 (human 5-HT1D receptor [6]; [16]): 4.37 nM
– | – | CN(C)[C@H]1CCc2c(cccc2-c2c(F)cccc2F)C1 [Di-FPT, (S)-5-(2,6-Difluorophenyl)-N,N-dimethyl-1,2,3,4-tetrahydronaphthalen-2-amine] | 1.62 nM | 1.41 nM | – | 1.74 nM | 98 ± 2% | 2.09 nM | 100 ± 1% | – | 1.66 nM | 100 ± 1% | 1.7 nM | –
87.1 nM | 95 ± 2% | Fc1ccccc1-c1cccc2c1CC[C@H](N1CCNCC1)C2 [FPIP, (S)-1-(5-(2-Fluorophenyl)-1,2,3,4-tetrahydronaphthalen-2-yl)piperazine] | – | – | – | – | – | – | – | – | – | – | – | Ki (human 5-HT1A receptor [1]; [17]): 0.977 nM; Ki (human 5-HT1B receptor [2]; [18]): 107 nM; EC50 (human 5-HT1A receptor [4]; [19]): 1.2 nM; selectivity over 5-HT1B and 5-HT1D receptors (human 5-HT1A receptor [4]; full efficacy 5-HT1A agonist): 100 fold; Emax (human 5-HT1B receptor [5]; read-out: 5-HT1B EMAX (%)): 99 ± 3%; EC50 (human 5-HT1B receptor [5]; [20]): 126 nM; Emax (human 5-HT1D receptor [6]; read-out: 5-HT1D EMAX (%)): 98 ± 2%; EC50 (human 5-HT1D receptor [6]; [16]): 148 nM
2040 nM | – | CN1CCC(c2c[nH]c3ccc(NC(=O)c4ccc(F)cc4)cc23)CC1 [LY334370, reference compound] | – | – | – | – | – | – | – | – | – | – | – | Ki (human 5-HT1A receptor [1]; [17]): 501 nM; Ki (human 5-HT1F receptor; [14]): 8.32 nM

Compound | Ki (human 5-HT1D receptor [3]; [15]) | Emax (human 5-HT1A receptor [4]; read-out: 5-HT1A EMAX (%)) | Ki (human 5-HT1B receptor [2]; [7]) | Ki (human 5-HT1D receptor [3]; [8]) | Ki (human 5-HT1F receptor) | EC50 (human 5-HT1A receptor [4]; 5-HT1A pEC50, WT receptor) | Emax (human 5-HT1A receptor [4]; [9]) | EC50 (human 5-HT1B receptor [5]; 5-HT1B pEC50, WT receptor) | Emax (human 5-HT1B receptor [5]; [11]) | 5-HT1B EMAX (%) (human 5-HT1B receptor [5]; [10]) | EC50 (human 5-HT1D receptor [6]; 5-HT1D pEC50, WT receptor) | Emax (human 5-HT1D receptor [6]; [12]) | Ki (human 5-HT1A receptor [1]; [13]) | other results
Cc1ccc(CNCC2(F)CCN(C(=O)c3ccc(F)c(Cl)c3)CC2)nc1 [NLX-112, reference compound] | – | 100 ± 3% | > 10000 nM | > 10000 nM | > 10000 nM | – | – | – | – | – | – | – | – | EC50 (human 5-HT1B receptor [5]; read-out: 5-HT1B pEC50 (converted), WT receptor): > 10000 nM; EC50 (human 5-HT1D receptor [6]; read-out: 5-HT1D pEC50 (converted), WT receptor): > 10000 nM
